{
  "source": "patent US20190218226A1",
  "about": "“PRODRUGS OF ANTICANCER AGENTS INDOTECAN AND INDIMITECAN” (Purdue Research Foundation, priority 2016, published 2019)",
  "key": {"[1]": {"system": "MCF-7", "assay": "NCI60 antiproliferative screen, breast MCF-7", "assay_type": "cell-based, human", "settings": "Homo sapiens, MCF7; MCF-7, 48 h, sulforhodamine B; read-out: Cytotoxicity (GI50) breast MCF-7", "procedure": "(§1) All of the indenoisoquinolines were tested for antiproliferative activity in the National Cancer Institute's 60 cell line screen (NCI60). The cells were incubated with the tested compounds at 100, 10, 1, 0.1, and 0.01 μM concentrations for 48 h before treatment with sulforhodamine B dye. Optical densities were recorded, and their ratios relative to that of the control were plotted as percentage growth against the log 10 of the tested compound concentrations. The concentration that corresponds to 50% growth inhibition (GI50) is calculated by interpolation between the points located above and below the 50% percentage growth. The mean-graph midpoint (MGM) is an estimated average of the GI50 values derived from the NCI collection of 60 human cancer cell lines, where during the MGM calculation, anticancer agents with GI50 values that are outside the testing range of 0.01-100 μM are arbitrarily assigned the values of 0.01 and 100 μM, respectively. […] Also, the GI50 values of many of the substances vs. individual human cancer cell lines are below the lowest concentration used (0.01 μM) in the standard NCI testing protocol. […] For example, the MGM cytotoxicity values of 9, 15-17, and 19 are all very close to each other, but the Top1 inhibitory activities range from +++(+) to 0."}, "[2]": {"system": "OVCAR-3", "assay": "NCI60 antiproliferative screen, ovarian OVCAR-3", "assay_type": "cell-based, human", "settings": "Homo sapiens; OVCAR-3, 48 h, sulforhodamine B; read-out: Cytotoxicity (GI50) Ovarian OVCAR-3", "procedure": "as §1"}, "[3]": {"system": "all human cancer cell lines successfully tested (NCI60)", "assay": "NCI60 mean graph midpoint for growth inhibition", "assay_type": "cell-based", "procedure": "as §1"}, "[4]": {"system": "SN12C", "assay": "NCI60 antiproliferative screen, renal SN12C", "assay_type": "cell-based, human", "settings": "Homo sapiens, 48 h, sulforhodamine B, read-out: Cytotoxicity (GI50) renal SN12C", "procedure": "as §1"}, "[5]": {"system": "SF-539", "assay": "NCI60 antiproliferative screen, CNS SF-539", "assay_type": "cell-based, human", "settings": "Homo sapiens; SF-539, 48 h, sulforhodamine B; read-out: Cytotoxicity (GI50) CNS SF-539", "procedure": "as §1"}, "[6]": {"system": "UACC-62", "assay": "NCI60 antiproliferative screen, melanoma UACC-62", "assay_type": "cell-based, human", "settings": "Homo sapiens; UACC-62, 48 h, sulforhodamine B; read-out: Cytotoxicity (GI50) melanoma UACC-62", "procedure": "as §1"}, "[7]": {"system": "HOP-62", "assay": "NCI60 antiproliferative screen, lung HOP-62", "assay_type": "cell-based, human", "settings": "Homo sapiens; HOP-62, 48 h, sulforhodamine B; read-out: Cytotoxicity (GI50) lung HOP-62", "procedure": "as §1"}, "[8]": {"system": "DU-145", "assay": "NCI60 antiproliferative screen, prostate DU-145", "assay_type": "cell-based, human", "settings": "Homo sapiens; DU-145, 48 h, sulforhodamine B; read-out: Cytotoxicity (GI50) prostate DU-145", "procedure": "as §1"}, "[9]": {"target": "T1, Human recombinant Top1 (Homo sapiens, UniProt P11387)", "T1 construct": "made in house", "T1 sequence (P11387 1-765)": "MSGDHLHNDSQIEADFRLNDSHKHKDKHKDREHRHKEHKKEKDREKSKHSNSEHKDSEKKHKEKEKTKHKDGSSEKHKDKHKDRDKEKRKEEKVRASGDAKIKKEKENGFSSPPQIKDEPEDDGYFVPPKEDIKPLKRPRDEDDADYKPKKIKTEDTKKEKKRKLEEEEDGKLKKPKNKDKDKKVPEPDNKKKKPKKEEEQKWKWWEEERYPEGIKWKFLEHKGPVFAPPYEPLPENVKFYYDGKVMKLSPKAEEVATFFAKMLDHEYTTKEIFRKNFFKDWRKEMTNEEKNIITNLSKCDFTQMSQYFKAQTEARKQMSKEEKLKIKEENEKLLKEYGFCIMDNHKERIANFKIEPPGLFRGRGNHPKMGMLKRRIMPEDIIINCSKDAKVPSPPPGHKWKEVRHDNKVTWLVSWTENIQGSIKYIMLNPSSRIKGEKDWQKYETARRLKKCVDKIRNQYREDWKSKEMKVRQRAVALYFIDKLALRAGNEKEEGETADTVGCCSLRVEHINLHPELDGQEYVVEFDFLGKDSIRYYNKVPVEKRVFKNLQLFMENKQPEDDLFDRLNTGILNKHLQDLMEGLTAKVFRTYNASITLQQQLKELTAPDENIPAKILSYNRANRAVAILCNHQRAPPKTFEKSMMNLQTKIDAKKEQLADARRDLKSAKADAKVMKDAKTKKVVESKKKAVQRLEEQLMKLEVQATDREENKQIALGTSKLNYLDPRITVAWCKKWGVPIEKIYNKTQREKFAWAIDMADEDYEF", "assay": "Top1-mediated DNA cleavage assay", "assay_type": "biochemical", "design": "key to Top1 inhibitory activity (level): 0, no detectable activity; +, weak activity; ++, similar activity to compound 4; +++, greater activity than 4; ++++, equipotent with 1; ++(+) would be between ++ and +++", "procedure": "All of the new indenoisoquinoline derivatives were tested in Top1-mediated DNA cleavage assays. For this purpose, a ^32P 3′-end labeled 117-bp DNA fragment was incubated with Top1 at four concentrations of a tested compound. The DNA fragments were separated on 20% PAGE denaturing gels. The Top1 inhibitory activities were assigned on the basis of the visual inspection of the number and intensities of the gel bands corresponding to Top1-mediated DNA cleavage fragments and scored relative to the Top1 inhibitory activity of compounds 1 and 4. Results are expressed in semiquantitative fashion: 0, no detectable activity; +, weak activity; ++, similar activity to compound 4; +++, greater activity than 4; ++++, equipotent with 1. Ambiguous scores (e.g., between two values) are designated with parentheses (e.g., ++(+) would be between ++ and +++). […] After conversion of the hydroxyl to a dimethylcarbamate, the observed Top1 inhibitory activity increased from ++(+) for compound 8 to +++ for compound 10. Introduction of an acetyl group at the 0-2 position yielded compound 11, which was also a Top1 poison with activity at the ++ level. Subsequently, several hydrophobic substituents were attached to the 0-2 position.\nTopoisomerase I-Mediated DNA Cleavage Reactions.\nHuman recombinant Top1 was purified from baculovirus as previously described (Morrell, A., et al., J. Med. Chem. 2007, 50, 2040-2048). DNA cleavage reactions were prepared as previously reported with the exception of the DNA substrate (Strumberg, D., et al., J. Med. Chem. 1999, 42, 446-457). Briefly, a 117-bp DNA oligonucleotide (Integrated DNA Technologies) encompassing the previously identified Top1 cleavage sites in the 161-bp fragment from pBluescript SK(−) phagemid DNA was employed. This 117-bp oligonucleotide contains a single 5′-cytosine overhang, which was 3′-end-labeled by fill-in reaction with [α-^32P]dGTP in React 2 buffer (50 mM Tris-HCl, pH 8.0, […], 50 mM NaCl) with 0.5 unit of DNA polymerase I (Klenow fragment, New England BioLabs). Unincorporated [^32P]dGTP was removed using mini Quick Spin DNA columns (Roche, Indianapolis, Ind.), and the eluate containing the 3′-end-labeled DNA substrate was collected. Approximately 2 nM radiolabeled DNA substrate was incubated with recombinant Top1 in 20 μL of reaction buffer [10 mM Tris-HCl (pH 7.5), 50 mM KCl, 5 mM MgCl2, 0.1 mM EDTA, and 15 μg/mL BSA] at 25° C. for 20 min in the presence of various concentrations of compounds. The reactions were terminated by adding SDS (0.5% final concentration) followed by the addition of two volumes of loading dye (80% formamide, 10 mM sodium hydroxide, 1 mM sodium EDTA, 0.1% xylene cyanol, and 0.1% bromophenol blue). Aliquots of each reaction mixture were subjected to 20% denaturing PAGE. Gels were dried and visualized by using a phosphoimager and ImageQuant software (Molecular Dynamics). For simplicity, cleavage sites were numbered as previously described in the 161-bp fragment."}, "[10]": {"system": "HCT-116", "assay": "NCI60 antiproliferative screen, colon HCT-116", "assay_type": "cell-based, human", "settings": "Homo sapiens; HCT-116, 48 h, sulforhodamine B; read-out: Cytotoxicity (GI50) Colon HCT-116", "procedure": "as §1"}},
  "data": [
    {"smiles": "COc1cc2c(=O)n(CCCN3CCOCC3)c3c(c2cc1OC(=O)N(C)C)C(=O)c1cc2c(cc1-3)OCO2", "note": "[Compound 10, 3-Methoxy-6-(3-morpholinopropyl)-5,12-dioxo-6,12-dihydro-5H-[1,3]dioxolo[4′,5′:5,6]indeno[1,2-c]isoquinolin-2-yl Dimethylcarbamate]", "values": [
      {"measurement": "GI50", "setting": "[1]", "value": 22, "unit": "nM"},
      {"measurement": "GI50", "setting": "[2]", "value": 12, "unit": "µM"},
      {"measurement": "GI50's against various cell lines (range in words)", "setting": "[3]; NCI60", "value": "micromolar range"},
      {"measurement": "mean GI50 across NCI60 cell lines (MGM)", "setting": "[3]; all human cancer cell lines successfully tested, ± standard error, read-out: MGM (mean graph midpoint for growth inhibition)", "value": "3.46 ± 0.999", "unit": "µM"},
      {"measurement": "GI50", "setting": "[4]", "value": 2400, "unit": "nM"},
      {"measurement": "melting point", "value": "268 to 270 °C (dec.)"},
      {"measurement": "GI50", "setting": "[5]", "value": 1860, "unit": "nM"},
      {"measurement": "GI50", "setting": "[6]", "value": 4.47, "unit": "µM"},
      {"measurement": "GI50", "setting": "[7]", "value": 1700, "unit": "nM"},
      {"measurement": "GI50", "setting": "[8]", "value": 1550, "unit": "nM"},
      {"measurement": "Top1 inhibitory activity (in words)", "setting": "[9]", "value": "slight improvement in Top1 inhibitory activity"},
      {"measurement": "Top 1 Cleavage", "setting": "[9]; graded relative to 1 μM camptothecin", "value": "+++ (+++, between 75 and 95% activity)"},
      {"measurement": "Top1 inhibitory activity (level)", "setting": "[9]; scored relative to compounds 1 and 4", "value": "+++"},
      {"measurement": "GI50", "setting": "[10]", "value": 6.07, "unit": "µM"}
    ]}
  ]
}
